Results: PubChem BioAssay AID2060883 (Molecular Pharmacology Branch, DTP, NCI, 2025)

Test system: 843782-103-R-J1-PDC complex spheroid viability
Experiment: Anticancer human tumor 843782-103-R-J1-PDC patient-derived lung adenocarcinoma cell line growth inhibition [RAS]
Conditions: for IC50: curve of first compound; for viability, T/C: stronger effect = lower value; active = viability on the fitted dose curve at most 10% of control; inactive = the rest
How it was run: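 Agents were tested in combination matrices in half-log decrements from a top concentration at or near clinical Cmax (10 microM if undetermined). Targets were multi-cell spheroids of tumour lines plus HUVEC and MSC stromal cells.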

[1] = second compound 0.0316 µM, first compound 0.0316 µM
[2] = second compound 0.0316 µM, first compound 0.1 µM
[3] = second compound 0.0316 µM, first compound 0.316 µM
[4] = second compound 0.0316 µM, first compound 1 µM
[5] = second compound 0.1 µM, first compound 0.0316 µM
[6] = second compound 0.1 µM, first compound 0.1 µM
[7] = second compound 0.1 µM, first compound 0.316 µM
[8] = second compound 0.1 µM, first compound 1 µM
[9] = second compound 0.316 µM, first compound 0.0316 µM
[10] = second compound 0.316 µM, first compound 0.1 µM
[11] = second compound 0.316 µM, first compound 0.316 µM
[12] = second compound 0.316 µM, first compound 1 µM
[13] = second compound 1 µM, first compound 0.0316 µM
[14] = second compound 1 µM, first compound 0.1 µM
[15] = second compound 1 µM, first compound 0.316 µM
[16] = second compound 1 µM, first compound 1 µM
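Also: viability read after seven days of compound exposure.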

O=C(c1ccc(F)c(F)c1Nc1ccc(I)cc1F)N1CC(O)([C@@H]2CCCCN2)C1 + C=CC(=O)N1CCN(c2nc(OCC3CCCN3C)nc3c(F)c(-c4nc(N)cc(C)c4C(F)(F)F)c(Cl)cc23)C(C)C1
138 nM: IC50 (second compound 1 µM)
173 nM: IC50 (second compound 0.00316 µM)
inactive: viability, T/C (second compound 0.00316 µM, first compound 0.00316 µM) 85.4% | viability, T/C (second compound 0.00316 µM, first compound 0.01 µM) 92% | viability, T/C (second compound 0.00316 µM, first compound 0.0316 µM) 77.5% | viability, T/C (second compound 0.00316 µM, first compound 0.1 µM) 61% | viability, T/C (second compound 0.00316 µM, first compound 0.316 µM) 38.4% | viability, T/C (second compound 0.00316 µM, first compound 1 µM) 24.3% | viability, T/C (second compound 0.01 µM, first compound 0.00316 µM) 87.5% | viability, T/C (second compound 0.01 µM, first compound 0.01 µM) 85.4% | viability, T/C (second compound 0.01 µM, first compound 0.0316 µM) 73.2% | viability, T/C (second compound 0.01 µM, first compound 0.1 µM) 59.5% | viability, T/C (second compound 0.01 µM, first compound 0.316 µM) 37.9% | viability, T/C (second compound 0.01 µM, first compound 1 µM) 23.5% | viability, T/C (second compound 0.0316 µM, first compound 0.00316 µM) 83.4% | viability, T/C (second compound 0.0316 µM, first compound 0.01 µM) 80.2% | viability, T/C [1] 71% | viability, T/C [2] 53.6% | viability, T/C [3] 36.8% | viability, T/C [4] 20.9% | viability, T/C (second compound 0.1 µM, first compound 0.00316 µM) 89.6% | viability, T/C (second compound 0.1 µM, first compound 0.01 µM) 79.6% | viability, T/C [5] 68.6% | viability, T/C [6] 52.7% | viability, T/C [7] 35.9% | viability, T/C [8] 19.7% | viability, T/C (second compound 0.316 µM, first compound 0.00316 µM) 84.5% | viability, T/C (second compound 0.316 µM, first compound 0.01 µM) 79.9% | viability, T/C [9] 68.3% | viability, T/C [10] 51.6% | viability, T/C [11] 42% | viability, T/C [12] 25.9% | viability, T/C (second compound 1 µM, first compound 0.00316 µM) 88.8% | viability, T/C (second compound 1 µM, first compound 0.01 µM) 75.5% | viability, T/C [13] 70.8% | viability, T/C [14] 53.8% | viability, T/C [15] 38.5% | viability, T/C [16] 25.5%
162 nM: IC50 (second compound 0.01 µM)
140 nM: IC50 (second compound 0.316 µM)
121 nM: IC50 (second compound 0.1 µM)
133 nM: IC50 (second compound 0.0316 µM)

CC(C)n1nc(-c2ccc3oc(N)nc3c2)c2c(N)ncnc21 + CCn1c(-c2cccnc2C(C)OC)c2c3cc(ccc31)N1CCOC(CC(NC(=O)C(C(C)C)N(C)C(=O)C3(F)CCN(C(=O)C#CC(C)(C)N(C)C)CC3)C(=O)N3CCCC(N3)C(=O)OCC(C)(C)C2)C1
5.87 nM: IC50 (second compound 0.00949 µM)
6.59 nM: IC50 (second compound 0.000949 µM)
3.57 nM: IC50 (second compound 0.3 µM)
5.1 nM: IC50 (second compound 0.03 µM)
inactive: viability, T/C (second compound 0.000949 µM, first compound 0.000316 µM) 84.1% | viability, T/C (second compound 0.000949 µM, first compound 0.001 µM) 66.4% | viability, T/C (second compound 0.000949 µM, first compound 0.00316 µM) 55.4% | viability, T/C (second compound 0.000949 µM, first compound 0.01 µM) 52.8% | viability, T/C (second compound 0.000949 µM, first compound 0.0316 µM) 28.5% | viability, T/C (second compound 0.000949 µM, first compound 0.1 µM) 14.9% | viability, T/C (second compound 0.003 µM, first compound 0.000316 µM) 78.1% | viability, T/C (second compound 0.003 µM, first compound 0.001 µM) 72.7% | viability, T/C (second compound 0.003 µM, first compound 0.00316 µM) 52.9% | viability, T/C (second compound 0.003 µM, first compound 0.01 µM) 44.4% | viability, T/C (second compound 0.003 µM, first compound 0.0316 µM) 27.1% | viability, T/C (second compound 0.003 µM, first compound 0.1 µM) 18.3% | viability, T/C (second compound 0.00949 µM, first compound 0.000316 µM) 72.7% | viability, T/C (second compound 0.00949 µM, first compound 0.001 µM) 62.8% | viability, T/C (second compound 0.00949 µM, first compound 0.00316 µM) 57.3% | viability, T/C (second compound 0.00949 µM, first compound 0.01 µM) 46.1% | viability, T/C (second compound 0.00949 µM, first compound 0.0316 µM) 28% | viability, T/C (second compound 0.00949 µM, first compound 0.1 µM) 15.5% | viability, T/C (second compound 0.03 µM, first compound 0.000316 µM) 70.4% | viability, T/C (second compound 0.03 µM, first compound 0.001 µM) 69.9% | viability, T/C (second compound 0.03 µM, first compound 0.00316 µM) 53.6% | viability, T/C (second compound 0.03 µM, first compound 0.01 µM) 42.7% | viability, T/C (second compound 0.03 µM, first compound 0.0316 µM) 25.3% | viability, T/C (second compound 0.03 µM, first compound 0.1 µM) 17.1% | viability, T/C (second compound 0.0949 µM, first compound 0.000316 µM) 73% | viability, T/C (second compound 0.0949 µM, first compound 0.001 µM) 64% | viability, T/C (second compound 0.0949 µM, first compound 0.00316 µM) 70.5% | viability, T/C (second compound 0.0949 µM, first compound 0.01 µM) 42.1% | viability, T/C (second compound 0.0949 µM, first compound 0.0316 µM) 25.6% | viability, T/C (second compound 0.0949 µM, first compound 0.1 µM) 15.8% | viability, T/C (second compound 0.3 µM, first compound 0.000316 µM) 71.3% | viability, T/C (second compound 0.3 µM, first compound 0.001 µM) 66.7% | viability, T/C (second compound 0.3 µM, first compound 0.00316 µM) 47.3% | viability, T/C (second compound 0.3 µM, first compound 0.01 µM) 40.3% | viability, T/C (second compound 0.3 µM, first compound 0.0316 µM) 23.7% | viability, T/C (second compound 0.3 µM, first compound 0.1 µM) 12.6%
7.35 nM: IC50 (second compound 0.0949 µM)
5.28 nM: IC50 (second compound 0.003 µM)

CC(C)NCC(C(=O)N1CCN(c2ncnc3c2C(C)CC3O)CC1)c1ccc(Cl)cc1 (stereo unspecified) + C#Cc1c(F)ccc2cc(O)cc(-c3ncc4c(N5CC6CCC(C5)N6)nc(OCC56CCCN5CC(F)C6)nc4c3F)c12
930 nM: IC50 (second compound 1 µM)
160 nM: IC50 (second compound 10 µM)
1560 nM: IC50 (second compound 0.316 µM)
1870 nM: IC50 (second compound 0.0316 µM)
inactive: viability, T/C [1] 99.3% | viability, T/C [2] 99.2% | viability, T/C [3] 90.4% | viability, T/C [4] 71.6% | viability, T/C (second compound 0.0316 µM, first compound 3.16 µM) 32.1% | viability, T/C (second compound 0.0316 µM, first compound 10 µM) 13.8% | viability, T/C [5] 106% | viability, T/C [6] 99.1% | viability, T/C [7] 94.3% | viability, T/C [8] 69.9% | viability, T/C (second compound 0.1 µM, first compound 3.16 µM) 28% | viability, T/C (second compound 0.1 µM, first compound 10 µM) 13.5% | viability, T/C [9] 103% | viability, T/C [10] 95.1% | viability, T/C [11] 86.9% | viability, T/C [12] 69.2% | viability, T/C (second compound 0.316 µM, first compound 3.16 µM) 21.4% | viability, T/C (second compound 0.316 µM, first compound 10 µM) 13.7% | viability, T/C [13] 100% | viability, T/C [14] 94.6% | viability, T/C [15] 79.2% | viability, T/C [16] 48% | viability, T/C (second compound 1 µM, first compound 3.16 µM) 21.2% | viability, T/C (second compound 1 µM, first compound 10 µM) 10.3% | viability, T/C (second compound 3.16 µM, first compound 0.0316 µM) 84.6% | viability, T/C (second compound 3.16 µM, first compound 0.1 µM) 75% | viability, T/C (second compound 3.16 µM, first compound 0.316 µM) 53.3% | viability, T/C (second compound 3.16 µM, first compound 1 µM) 31.8% | viability, T/C (second compound 3.16 µM, first compound 3.16 µM) 13% | viability, T/C (second compound 10 µM, first compound 0.0316 µM) 62.8% | viability, T/C (second compound 10 µM, first compound 0.1 µM) 55% | viability, T/C (second compound 10 µM, first compound 0.316 µM) 42.3% | viability, T/C (second compound 10 µM, first compound 1 µM) 20%
1720 nM: IC50 (second compound 0.1 µM)
390 nM: IC50 (second compound 3.16 µM)
active: viability, T/C (second compound 3.16 µM, first compound 10 µM) 7.27% | viability, T/C (second compound 10 µM, first compound 3.16 µM) 10.1% | viability, T/C (second compound 10 µM, first compound 10 µM) 4.52%
